Experiments:
Type in all cases: cell-based
[1] = molecular target: mTRPA1 (Mus musculus, UniProt Q8BLA8); test: FDSS Ca2+-influx assay, HEK293 cells stably expressing mTRPA1; parameters: expressed in transfected cells; conditions: HEK293 cells, change in [Ca2+]i; read-out: EC50, activation of mTRPA1
Experimental: Ca^2+-influx assays were carried out using HEK293 cells stably expressing mTRPA1 channels with an FDSS screening system (Hamamatsu, Japan). Before the start of the assay, HEK293-mTRPA1 cells were plated onto poly-D-Lysine (40 μg ml^−1) coated 96-well black clear bottom plate with the cell density of 300 000 cells per milliliter in DMEM supplemented with 10% (vol/vol) fetal bovine serum, 200 μg ml^−1 Hygromycin B, 15 μg ml^−1 Blasticidin S HCL and 0.3 μg ml^−1 doxycycline, which could induce the expression of mTRPA1. The 96-well plate was then put in sterile incubator overnight. The following day, Ca^2+ influx dye Fluo-4/AM stock was diluted to 2 μM with bath solution, and added (50 μl per well) in place of the culture medium. The plate was then incubated to load the Fluo-4/AM into cells for 60 min at 37 °C in dark environment. During the incubation, we prepared the compound plate (96-well) and the margin of plate was set as blank control due to the fringing effect. At the end of dye loading period, the remnant dye was removed using bath solution to wash the 96-well cell plate twice and then add 80 μl bath solution per well.

[2] = molecular target: T1, TRPC5 (Homo sapiens, UniProt Q9UL62); test: Calcium fluorescence signal, HEK293 cells overexpressing TRPC5; conditions: 10 μM
T1 construct: expressed in transfected cells; host or cells: HEK293
T1 sequence (Q9UL62 1-973): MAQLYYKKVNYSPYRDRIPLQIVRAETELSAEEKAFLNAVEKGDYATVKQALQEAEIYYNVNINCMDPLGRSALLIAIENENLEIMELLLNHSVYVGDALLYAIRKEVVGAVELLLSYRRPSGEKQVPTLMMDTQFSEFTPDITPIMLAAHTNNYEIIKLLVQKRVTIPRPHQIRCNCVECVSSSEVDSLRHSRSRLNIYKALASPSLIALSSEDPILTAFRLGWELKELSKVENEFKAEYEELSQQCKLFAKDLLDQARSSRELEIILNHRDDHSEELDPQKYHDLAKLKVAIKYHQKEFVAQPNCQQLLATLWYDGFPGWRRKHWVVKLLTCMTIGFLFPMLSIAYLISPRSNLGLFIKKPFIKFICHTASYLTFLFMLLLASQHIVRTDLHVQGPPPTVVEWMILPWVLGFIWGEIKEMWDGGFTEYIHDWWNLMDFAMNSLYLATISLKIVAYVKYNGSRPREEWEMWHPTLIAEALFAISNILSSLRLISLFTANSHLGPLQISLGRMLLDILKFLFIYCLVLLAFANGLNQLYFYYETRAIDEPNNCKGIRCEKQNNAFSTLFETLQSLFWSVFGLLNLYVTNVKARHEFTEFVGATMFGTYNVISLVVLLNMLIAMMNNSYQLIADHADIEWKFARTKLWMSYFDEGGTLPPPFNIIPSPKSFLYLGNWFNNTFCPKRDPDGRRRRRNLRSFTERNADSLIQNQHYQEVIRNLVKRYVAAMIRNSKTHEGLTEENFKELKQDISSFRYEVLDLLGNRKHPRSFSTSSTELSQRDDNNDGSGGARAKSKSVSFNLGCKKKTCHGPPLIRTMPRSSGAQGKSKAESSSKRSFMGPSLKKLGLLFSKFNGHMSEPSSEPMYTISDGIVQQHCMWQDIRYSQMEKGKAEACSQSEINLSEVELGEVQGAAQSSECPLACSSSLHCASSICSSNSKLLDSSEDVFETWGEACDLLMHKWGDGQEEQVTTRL
Experimental: (§1) Figure S3. Specificity of malathion for TRPA1 channels. (A-F) Time course of the fluorescence signal induced by malathion (Mala, 10 μM) and the indicated positive agonists (10 μM) in HEK293 cells overexpressing TRPV1 (A), TRPV3 (B), TRPV4 (C), TRPM8 (D), TRPC4 (E) and TRPC5 (F) channels. The fluorescence signals are scaled as F/F0. EC indicates external solution. […]
(§2) cells for each tested TRP channel. All bars are presented as the mean ± SEM. […]

[3] = molecular target: T2, TRPV3 (Homo sapiens, UniProt Q8NET8); test: Calcium fluorescence signal, HEK293 cells overexpressing TRPV3; conditions: 10 μM
T2 construct: expressed in transfected cells; host or cells: HEK293
T2 sequence (Q8NET8 1-790): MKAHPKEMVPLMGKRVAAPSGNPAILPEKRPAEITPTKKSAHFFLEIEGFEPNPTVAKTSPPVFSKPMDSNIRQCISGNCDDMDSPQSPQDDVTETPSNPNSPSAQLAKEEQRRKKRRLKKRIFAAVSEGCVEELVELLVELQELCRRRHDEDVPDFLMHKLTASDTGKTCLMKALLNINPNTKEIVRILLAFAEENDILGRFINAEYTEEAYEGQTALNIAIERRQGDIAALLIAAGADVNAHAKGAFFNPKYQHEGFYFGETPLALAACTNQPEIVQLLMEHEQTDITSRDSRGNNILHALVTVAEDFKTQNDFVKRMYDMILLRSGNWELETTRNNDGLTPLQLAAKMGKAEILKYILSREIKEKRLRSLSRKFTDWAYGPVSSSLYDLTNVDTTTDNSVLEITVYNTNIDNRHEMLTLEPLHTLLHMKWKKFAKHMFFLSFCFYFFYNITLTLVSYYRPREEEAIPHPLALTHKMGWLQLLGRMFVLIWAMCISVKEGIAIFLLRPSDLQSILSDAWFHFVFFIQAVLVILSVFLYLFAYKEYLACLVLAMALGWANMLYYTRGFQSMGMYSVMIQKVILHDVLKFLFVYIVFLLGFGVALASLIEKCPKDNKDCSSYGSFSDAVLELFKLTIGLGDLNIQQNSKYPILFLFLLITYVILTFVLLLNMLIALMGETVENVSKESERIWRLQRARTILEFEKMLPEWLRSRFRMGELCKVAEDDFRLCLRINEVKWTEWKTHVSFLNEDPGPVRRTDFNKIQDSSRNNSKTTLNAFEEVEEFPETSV
Experimental: as §1, §2

Sequence of mTRPA1 (Q8BLA8 whole entry): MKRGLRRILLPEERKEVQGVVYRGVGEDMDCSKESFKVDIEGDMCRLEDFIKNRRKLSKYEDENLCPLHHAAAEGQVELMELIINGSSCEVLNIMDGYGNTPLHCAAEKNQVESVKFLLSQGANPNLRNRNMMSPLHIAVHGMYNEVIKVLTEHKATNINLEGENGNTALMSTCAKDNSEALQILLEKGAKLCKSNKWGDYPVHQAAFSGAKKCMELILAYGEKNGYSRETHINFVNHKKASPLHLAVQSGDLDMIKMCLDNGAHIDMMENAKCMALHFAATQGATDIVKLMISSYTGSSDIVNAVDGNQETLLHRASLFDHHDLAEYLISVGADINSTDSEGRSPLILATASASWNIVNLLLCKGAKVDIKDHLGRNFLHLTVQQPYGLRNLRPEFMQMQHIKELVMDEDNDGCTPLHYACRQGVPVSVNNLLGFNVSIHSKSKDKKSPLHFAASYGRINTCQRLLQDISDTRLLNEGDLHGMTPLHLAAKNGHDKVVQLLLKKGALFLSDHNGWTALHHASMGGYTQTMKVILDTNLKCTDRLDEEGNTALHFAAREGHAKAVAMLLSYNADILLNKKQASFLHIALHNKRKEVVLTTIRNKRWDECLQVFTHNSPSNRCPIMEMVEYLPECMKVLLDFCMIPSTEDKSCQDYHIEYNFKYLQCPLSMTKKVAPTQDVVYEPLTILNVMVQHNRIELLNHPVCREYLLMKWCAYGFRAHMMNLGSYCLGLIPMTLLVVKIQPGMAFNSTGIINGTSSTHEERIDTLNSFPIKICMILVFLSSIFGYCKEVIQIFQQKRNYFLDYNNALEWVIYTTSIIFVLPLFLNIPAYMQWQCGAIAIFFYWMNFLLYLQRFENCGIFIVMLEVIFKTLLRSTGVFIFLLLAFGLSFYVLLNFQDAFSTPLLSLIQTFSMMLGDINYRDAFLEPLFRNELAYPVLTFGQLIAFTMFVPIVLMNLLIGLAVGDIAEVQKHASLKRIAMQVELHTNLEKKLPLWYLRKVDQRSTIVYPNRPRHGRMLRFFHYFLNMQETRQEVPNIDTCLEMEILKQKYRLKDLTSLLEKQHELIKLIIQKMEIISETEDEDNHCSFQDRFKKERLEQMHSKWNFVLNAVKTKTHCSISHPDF

Structure (SMILES): CCOC(=O)CC(SP(=S)(OC)OC)C(=O)OCC (stereo not drawn) [malathion, S-[1,2-bis (ethoxycarbonyl)ethyl] O, O-dimethyl phosphorodithioate]
- EC50 [1]: 14.2 ± 1.02 µM
- activation of TRPC5 [2]: could not activate
- activation of TRPV3 [3]: could not activate

Source: PMC5537602, “TRPA1 channel mediates organophosphate-induced delayed neuropathy” (Cell Discovery, 2017)
